Measurements reported in publication PMC10900215 (JACS Au, 2024).
Values joined by “and” are separate entries in the source; they are usually repeats but may differ in a detail not shown here. Identical values can stand only once.

Experiments:
METTL3 = target: T1, METTL3 (Homo sapiens, UniProt Q86U44); assay: Cellular degradation assay (Western blot), METTL3 in MOLM-13; type: cell-based; details: MOLM-13, 24 h, 2 μM compound
T1 construct: METTL3–14 degradation up to 70% of the endogenous level; endogenous in cells; host or cells: MOLM-13, PC3, DU145
T1 sequence (Q86U44 2-580 limits assumed): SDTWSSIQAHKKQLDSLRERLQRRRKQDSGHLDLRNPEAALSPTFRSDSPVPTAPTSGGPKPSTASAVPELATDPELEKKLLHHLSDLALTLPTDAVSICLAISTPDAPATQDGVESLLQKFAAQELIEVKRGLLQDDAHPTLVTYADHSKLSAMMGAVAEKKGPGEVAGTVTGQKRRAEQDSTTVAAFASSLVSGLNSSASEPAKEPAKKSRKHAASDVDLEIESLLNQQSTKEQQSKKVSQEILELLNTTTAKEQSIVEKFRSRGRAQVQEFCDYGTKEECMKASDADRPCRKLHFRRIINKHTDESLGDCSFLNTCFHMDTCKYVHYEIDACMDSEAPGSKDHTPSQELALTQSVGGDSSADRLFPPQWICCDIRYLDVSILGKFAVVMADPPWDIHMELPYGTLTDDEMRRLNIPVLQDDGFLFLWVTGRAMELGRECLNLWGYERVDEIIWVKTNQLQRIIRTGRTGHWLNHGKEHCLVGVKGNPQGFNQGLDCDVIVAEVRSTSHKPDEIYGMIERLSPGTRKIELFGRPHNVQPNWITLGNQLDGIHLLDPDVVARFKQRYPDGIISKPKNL
T1 sequence (Q9HCE5 whole entry partner): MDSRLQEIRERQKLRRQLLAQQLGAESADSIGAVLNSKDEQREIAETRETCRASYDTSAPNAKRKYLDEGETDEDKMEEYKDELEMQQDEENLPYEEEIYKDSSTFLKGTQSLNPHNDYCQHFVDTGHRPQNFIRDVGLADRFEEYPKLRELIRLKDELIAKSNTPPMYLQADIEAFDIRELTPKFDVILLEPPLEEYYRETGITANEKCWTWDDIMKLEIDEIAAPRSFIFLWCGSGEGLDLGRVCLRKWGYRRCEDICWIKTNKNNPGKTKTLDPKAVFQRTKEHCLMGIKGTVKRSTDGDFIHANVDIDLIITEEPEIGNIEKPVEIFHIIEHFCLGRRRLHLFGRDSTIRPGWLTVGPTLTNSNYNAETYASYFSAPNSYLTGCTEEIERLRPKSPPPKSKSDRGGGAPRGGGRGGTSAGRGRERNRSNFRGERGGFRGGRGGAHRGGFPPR
Protocol: (§1) MOLM-13, NOMO-1, THP-1, Kasumi-1, PC3, and DU145 cell lines were obtained from DSMZ-German Collection of Microorganisms and Cell Cultures GmbH. Cells were cultured in RPMI 1640 medium (11875093, Thermo Fisher Scientific) containing 10% FBS (16140071, Thermo Fisher Scientific) and 1% penicillin-streptomycin (15140122, Thermo Fisher Scientific) in 5% CO2 at 37 °C in a humidified incubator, with maintained cell densities at 0.5–1 × 10^6 cells/mL. All cell lines were tested negative for mycoplasma contamination (PCR-based assay by Microsynth, Switzerland).
(§2) METTL3 (and METTL14) protein degradation was monitored by Western blot. Cells were treated with the indicated concentration of PROTACs or DMSO control (0.1% (v/v)) for 24h, 37 °C with 5% CO2. Samples were then collected and lysed with RIPA buffer with added protease inhibitors (11697498001, Roche). After SDS-PAGE, proteins were transferred to a nitrocellulose membrane, blocked (with 5% milk, 0.5% BSA in TBST buffer), and incubated overnight with primary antibodies. The following antibodies were used: GAPDH (no. 2118, Cell Signaling, 1:4000), β-actin (ab8226, Abcam, 1:2000), METTL3 (ab195352, Abcam, 1:1000), and METTL14 (ab220031, Abcam, 1:1000). Membranes were scanned using an LI-COR Odyssey DLx imager after incubation with appropriate secondary antibodies (antimouse IgG IRDye 680RD (926–68072, LI-COR, 1:10000) and goat anti-Rabbit IgG IRDye 800CW (926–32211, LI-COR, 1:10000)). Densitometry was performed in Image Studio Lite software and analyzed in GraphPad Prism 9.

METTL14 = assay: Cellular degradation assay (Western blot), METTL14 in MOLM-13; type: cell-based, human; details: MOLM-13, 24 h, 2 μM compound
Protocol: as §1, §2

[1] = target: T2, ternary complex CRBN/PROTAC/METTL3–14 (Homo sapiens, UniProt Q86U44+Q96SW2); assay: FRET-based ternary complex formation assay (TCFA); type: binding; details: for TCFA amplitude (mean ± SEM): Hook curve amplitude, fraction of the maximum of compound 16; for ECmax (nM) ± SD: PROTAC concentration at the maximum of the signal in the TCFA; for ECmax: TCFA, peak of the Hook curve
T2 construct: methyltransferase domains (MTD) of METTL3 (residues 354–580); His6 (N, cleaved yes); made in house; host or cells: METTL3-MTD/METTL14-MTD: baculovirus/Sf9; CRBN-TBD: E. coli Rosetta (DE3), co-expressed with BirA
T2 sequence (Q86U44 354-580): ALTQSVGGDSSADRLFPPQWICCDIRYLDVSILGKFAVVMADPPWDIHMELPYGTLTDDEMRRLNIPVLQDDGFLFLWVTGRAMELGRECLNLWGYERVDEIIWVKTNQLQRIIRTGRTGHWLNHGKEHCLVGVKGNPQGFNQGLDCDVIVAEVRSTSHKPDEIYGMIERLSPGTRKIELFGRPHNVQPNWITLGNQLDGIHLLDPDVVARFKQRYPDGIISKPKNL
T2 sequence (Q9HCE5 107-395 partner limits assumed): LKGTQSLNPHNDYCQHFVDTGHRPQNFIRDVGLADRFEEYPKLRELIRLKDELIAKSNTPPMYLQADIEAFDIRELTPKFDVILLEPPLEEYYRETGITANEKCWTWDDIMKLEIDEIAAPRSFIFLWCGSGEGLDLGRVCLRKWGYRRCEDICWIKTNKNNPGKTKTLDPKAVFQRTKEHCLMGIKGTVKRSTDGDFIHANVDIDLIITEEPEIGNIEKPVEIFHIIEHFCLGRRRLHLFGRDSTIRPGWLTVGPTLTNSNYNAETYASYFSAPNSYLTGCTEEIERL
T2 sequence (Q96SW2 318-442): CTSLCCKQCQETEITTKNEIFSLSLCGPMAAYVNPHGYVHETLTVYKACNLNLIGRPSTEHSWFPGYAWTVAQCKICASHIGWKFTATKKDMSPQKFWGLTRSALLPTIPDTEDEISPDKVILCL
Protocol: For protein expression, suspension cultures of Sf9 cells in […] medium (Thermo Fisher) were infected at a density of 2 × 10^6 mL^–1. […] The complex was further purified by size exclusion chromatography using a Superdex 200 Increase 10/300 GL column (Cytiva) in 20 mM Tris-Cl, pH 8.0, and 200 mM KCl. The complex was aliquoted and flash-frozen in liquid nitrogen and stored at −80 °C until further use.
Ternary complex formation between the PROTACs, METTL3, and CRBN was quantified by a homogeneous time-resolved fluorescence (HTRF)-based enzyme assay. […] Curves of titrations with the PROTACs were plotted in GraphPad Prism 9.5.1 and fitted with a Gaussian function, if appropriate. […] CRBN^TBD-Avi(biotin) was used at a final concentration of 10 nM. […] Anti-GST Eu^3+-labeled antibody (Cisbio, 61GSTKLB) was used at a final concentration of 0.8 nM. The final reaction volume was 20 μL in 50 mM HEPES (pH 7.5), 150 mM NaCl, 0.1% BSA, 100 mM KF. […] The ratio of the emissions [drawing 1] was considered for further analysis. […] The concentrations resulting in the maximum signal (ECmax) and the amplitudes of the Hook curves were determined from the parameters of the Gaussian fit (if appropriate) or as the coordinates of the data-point with the highest TR-FRET signal.
For the ternary complex formation assay (TCFA), one of the protein partners must have a GST-tag and the other a biotin-tag.

METTL3-14 = METTL3-14 (Homo sapiens, UniProt Q86U44); assay: biochemical; set-up: with the full-length complex, the recombinant complex construct pFastBacDual-StrepII-GFP-TEV-METTL3-His-TEV-METTL14 was expressed; StrepII (N); GFP (N); TEV site (N); made in house; host or cells: baculovirus/Sf9 insect cells; details: inhibition of catalytic activity of METTL3-14, binary FRET assay
Sequence of METTL3-14 (Q86U44 whole entry): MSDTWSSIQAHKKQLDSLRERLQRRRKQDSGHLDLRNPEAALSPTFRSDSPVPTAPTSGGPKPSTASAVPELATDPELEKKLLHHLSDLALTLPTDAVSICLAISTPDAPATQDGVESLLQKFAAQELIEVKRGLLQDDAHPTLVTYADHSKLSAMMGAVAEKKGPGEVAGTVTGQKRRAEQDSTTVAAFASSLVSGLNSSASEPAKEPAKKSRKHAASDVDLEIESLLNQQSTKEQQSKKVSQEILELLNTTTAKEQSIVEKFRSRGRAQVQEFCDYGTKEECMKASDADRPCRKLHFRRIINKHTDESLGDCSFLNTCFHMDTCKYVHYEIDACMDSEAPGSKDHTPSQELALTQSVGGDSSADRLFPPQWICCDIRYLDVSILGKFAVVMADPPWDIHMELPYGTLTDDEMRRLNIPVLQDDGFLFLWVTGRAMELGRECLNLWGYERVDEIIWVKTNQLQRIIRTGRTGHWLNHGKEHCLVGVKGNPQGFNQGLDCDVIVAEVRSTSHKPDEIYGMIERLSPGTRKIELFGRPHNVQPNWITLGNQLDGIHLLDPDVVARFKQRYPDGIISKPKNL
Sequence of METTL3-14 (Q9HCE5 whole entry, further chain): as the sequence (Q9HCE5 whole entry partner) above
Source text: For determining the half maximal inhibitory concentration (IC50) with the full-length complex, the recombinant complex construct pFastBacDual-StrepII-GFP-TEV-METTL3-His-TEV-METTL14 was expressed using the baculovirus/Sf9 insect cell expression system and purified as described previously.[21]
The inhibitory potencies of the PROTACs for METTL3 were quantified by a homogeneous time-resolved fluorescence (HTRF)-based enzyme assay as previously described.[40]

[2] = Cell viability assay (CellTiter-Glo) on MOLM-13; type: cell-based; details: human, MOLM-13 cells, average of two biological replicates; for viability at 72 h, […]: 2.5 µM
Protocol: as §1
Cell viability was determined using a CellTiter-Glo luminescent cell viability assay (Promega) based on the detection of ATP according to the manufacturer’s instructions. 100 μL of the reagent was added to each well and incubated for 10 min at room temperature. […] Background luminescence value was obtained from wells containing the CellTiter-Glo reagent and medium without cells. The resulting data was analyzed in GraphPad Prism 9.

Structure (SMILES)	MOLM-13 West. blot at 24h 2 μM comp conc. Degradation (%) of METTL3 (METTL3)	MOLM-13 West. blot at 24h 2 μM comp conc. Degradation (%) of METTL14 (METTL14)	TCFA amplitude (mean ± SEM) [1]	ECmax (nM) ± SD [1]	ECmax [1] [µM]	IC50 (METTL3-14) [nM]	viability at 72 h, 0.6 µM [2] [%]	viability at 72 h, 1.25 µM [2] [%]	viability at 72 h, […] [2] [%]	viability at 72 h, 5 µM [2] [%]	viability at 72 h, 10 µM [2] [%]
CC1(C)CCN(Cc2ccc(N3CC(=O)NC4(CCN(c5cc(NCCCNC(=O)CCOCCOCCNc6cccc7c6C(=O)N(C6CCC(=O)NC6=O)C7=O)ncn5)CC4)C3)cc2)CC1 (stereo not shown) [Compound 1]	/ ^a (Degradation <10% or stabilization)	/ ^a (Degradation <10% or stabilization)	0.03	6800 (n = 1) nM	6.8	2470 ± 790					
CC1(C)CCN(Cc2ccc(N3CC(=O)NC4(CCN(c5cc(NCCCNC(=O)CCOCCOCCOCCNc6cccc7c6C(=O)N(C6CCC(=O)NC6=O)C7=O)ncn5)CC4)C3)cc2)CC1 (stereo not shown) [Compound 2]	/ (Degradation <10% or stabilization)	/ (Degradation <10% or stabilization)	0.3 ± 0.1	2800 ± 280 nM	2.8	1060 ± 220					
CC1(C)CCN(Cc2ccc(N3CC(=O)NC4(CCN(c5cc(NCCCNC(=O)CCOCCOCCOCCOCCNc6cccc7c6C(=O)N(C6CCC(=O)NC6=O)C7=O)ncn5)CC4)C3)cc2)CC1 (stereo not shown) [Compound 3]	/ (Degradation <10% or stabilization)	/ (Degradation <10% or stabilization)	0.3 ± 0.2	1900 (n = 1) nM	1.9	590 ± 130					
CC1(C)CCN(Cc2ccc(N3CC(=O)NC4(CCN(c5cc(NCCCNC(=O)CCOCCOCCOCCOCCOCCNc6cccc7c6C(=O)N(C6CCC(=O)NC6=O)C7=O)ncn5)CC4)C3)cc2)CC1 (stereo not shown) [Compound 4]	/ (Degradation <10% or stabilization)	/ (Degradation <10% or stabilization)	0.4	2000 (n = 1) nM	2.0	640 ± 120					
CC1(C)CCN(Cc2ccc(N3CC(=O)NC4(CCN(c5cc(NCCCNC(=O)CCCCCCCCNc6cccc7c6CN(C6CCC(=O)NC6=O)C7=O)ncn5)CC4)C3)cc2)CC1 (stereo not shown) [Compound 5]	/ (Degradation <10% or stabilization)	/ (Degradation <10% or stabilization)	0.7 ± 0.1	660 ± 20 nM		260 ± 30					
CC1(C)CCN(Cc2cc(F)c(N3CC(=O)NC4(CCN(c5cc(NCC6CCN(C(=O)CNc7cccc8c7C(=O)N(C7CCC(=O)NC7=O)C8=O)CC6)ncn5)CC4)C3)cc2F)CC1 (stereo not shown) [Compound 21]	21% and 21 ± 9%	23 ± 9%	1.3 ± 0.1	60 ± 30 nM	0.06		104	105	110	110	102
CC1(C)CCN(Cc2cc(F)c(N3CC(=O)NC4(CCN(c5cc(NCc6ccc(N7CCN(c8cccc9c8C(=O)N(C8CCC(=O)NC8=O)C9=O)CC7)cc6)ncn5)CC4)C3)cc2F)CC1 (stereo not shown) [Compound 34]		< 10%	0.2 ± 0.1	120 ± 30 nM			95.8	97.3	96.3	99.2	101
CC1(C)CCN(Cc2cc(F)c(N3CC(=O)NC4(CCN(c5cc(NCC6CCN(C(=O)CN7CCN(c8cccc9c8C(=O)N(C8CCC(=O)NC8=O)C9=O)CC7)CC6)ncn5)CC4)C3)cc2F)CC1 (stereo not shown) [Compound 35]	21% and 21 ± 11%	25 ± 3%	0.7 ± 0.2	20 ± 0 nM							105
